{"source": "patent US20220175761A1", "about": "“BI-LIGAND DRUG CONJUGATE AND USE THEREOF” (COHERENT BIOPHARMA (SUZHOU), LIMITED, priority 2019, published 2022)", "key": {"[1]": {"system": "KB, LNCaP, T-47D, RT4 and NCI-H460 tumor cell lines", "assay": "Inhibition of tumor cell expansion, CCK8 (CB-10S)", "type": "cell-based, human", "protocol": "Cell lines: KB human oral epidermoid carcinoma cells, NCI-H460 human lung cancer cells, RT4 human bladder cancer cells, T-47D human breast cancer cells and LNcap human prostate cancer cells\nThe cells were prepared in advance, digested with trypsin, collected and counted; with a complete cell culture medium, KB cells were diluted to 3.5×10^4 cells/ml, LNCaP cells were diluted to 8.0×10^4 cells/ml, T-47D cells were diluted to 1.2×10^4 cells/ml, NCI-H460 cells were diluted to 2.5×10^4 cells/ml, and RT4 cells were diluted to 1.2×10^4 cells/ml; to each well of 96-well plates, 100 μl of the diluted cell solution was added; and negative control and blank control wells were set on each plate. The 96-well plates added with the cells were placed in an incubator at 37° C., 5% CO2 for culturing overnight.\nThe samples were diluted with a culture medium to desired concentrations (see Table 12). […]\n(§1) To each well, 15 μl (10% of the liquid volume in a well) of a color developing solution from CCK-8 was added; the plates were incubated at 37° C. for an appropriate time (try to keep the OD value in the range of 1.0-2.0); the covers of the 96-well plates were removed, and the plates were read at 450 nm on a microplate reader (Molecular Devices Spectra MAX Plus). […]"}, "[2]": {"system": "KB, T-47D, NCI-H460, CALU-3, HuH-7, and LNCaP tumor cell lines", "assay": "Inhibition of tumor cell expansion, CCK8 (CB-60SK)", "type": "cell-based, human", "protocol": "(§2) Cell lines: KB human oral epidermoid carcinoma cells, T-47D human breast cancer cells, NCI-H460 human lung cancer cells, CALU-3 human lung adenocarcinoma cells, HuH-7 human liver cancer cells and LNCaP human prostate cancer cells\n(§3) The cells were prepared in advance, digested with trypsin, collected and counted; with a complete cell culture medium, KB cells were diluted to 2.5×10^4 cells/ml, T-47D cells were diluted to 1.3×10^4 cells/ml, NCI-H460 cells were diluted to 3.5×10^4 cells/ml, CALU-3 cells were diluted to 4.0×10^4 cells/ml, HuH-7 cells were diluted to 3.0×10^4 cells/ml, and LNCaP cells were diluted to 8.0×10^4 cells/ml; 100 μl of the diluted cell solution was added to each well; and negative control and blank control wells were set on each plate. The 96-well plates added with the cells were placed in an incubator at 37° C., 5% CO2 for culturing overnight.\nThe samples were diluted with a culture medium to desired concentrations (see Table 14). […]\nas §1"}, "[3]": {"system": "KB, T-47D, NCI-H460, CALU-3, HuH-7, and LNCaP tumor cell lines", "assay": "Inhibition of tumor cell expansion, CCK8 (CB-60S)", "type": "cell-based, human", "protocol": "as §2\nas §3, with “2.0×10^4” for “2.5×10^4”, “1.5×10^4” for “1.3×10^4”, “2.0×10^4” for “3.5×10^4”, “3.0×10^4” for “4.0×10^4”, “4.0×10^4” for “3.0×10^4”, “well of 96-well plates;” for “well;”\nThe samples were diluted with a culture medium to desired concentrations (see Table 13). […]\nas §1"}, "[4]": {"molecular_target": "T1, FOLR1 (Homo sapiens, UniProt P15328)", "T1 construct": "purchased R&D System 5646-FR", "T1 sequence (P15328 25-233 limits assumed)": "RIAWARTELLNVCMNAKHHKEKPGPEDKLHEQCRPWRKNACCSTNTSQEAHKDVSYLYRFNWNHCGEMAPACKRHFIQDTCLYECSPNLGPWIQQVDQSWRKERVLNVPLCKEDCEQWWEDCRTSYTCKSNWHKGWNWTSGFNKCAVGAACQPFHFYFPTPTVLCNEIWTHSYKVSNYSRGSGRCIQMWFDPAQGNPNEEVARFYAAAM", "assay": "BIAcore T200 binding affinity to FOLR1 (CM5 chip conjugated with FOLR1)", "source_text": "Buffer: HBS-EP+ buffer 10× (GE, Cat #: BR100669), diluted 10 folds with deionized water before use.\nIn the experiment, CM5 chip was conjugated with ligand FOLR1 (R&D System, Cat #: 5646-FR)."}, "[5]": {"system": "LNCaP (human prostate cancer cells)", "assay": "Inhibition of cell line proliferation, CCK8", "type": "cell-based", "source_text": "(§4) Since different cells have different sensitivity to a cell proliferation inhibitory toxicity of the payload in a ligand conjugate, the quantitative analysis may be interfered occasionally. A series of cell lines with known expression levels of receptors of different ligands were selected and tested for the response to inhibitory effects of the cell proliferation of a ligand conjugate and a single payload. The IC50 ratio of a single payload to that of a ligand conjugate in same cell line were taken to remove such interference.\nExperimental operations: LNCaP and 22RV1 cells were prepared in advance, counted, and plated in 96-well cell culture plates at a cell density of 4×10^4 cells/ml and 2.0×10^4 cells/ml, respectively (100 μl/well); negative control and blank control wells were set on each plate. After adherent cell culture overnight, the diluted samples to be tested were added at 50 μl/well. The plates were placed in an incubator at 37° C., 5% CO2 and cultured for 68-72 hours. To each well, 15 μl (10% of the liquid volume in a well) of a color developing solution from CCK8 was added; and the plates were incubated at 37° C. for 45-70 minutes and each plate was read at 450 nm on a microplate reader. The data was edited using SoftMax Pro and a 4-P fitting curve was plotted. […]"}, "[6]": {"system": "22RV1 (human prostate cancer cells)", "assay": "Inhibition of cell line proliferation, CCK8", "type": "cell-based", "source_text": "as §4\nExperimental operations: LNCaP and 22RV1 cells were prepared in advance, counted, and plated in 96-well cell culture plates at a cell density of 4×10^4 cells/ml and 2.0×10^4 cells/ml, respectively (100 μl/well); negative control and blank control wells were set on each plate. After adherent cell culture overnight, the diluted samples to be tested were added at 50 μl/well. The plates were placed in an incubator at 37° C., 5% CO2 and cultured for 68-72 hours. To each well, 15 μl (10% of the liquid volume in a well) of a color developing solution from CCK8 was added; and the plates were incubated at 37° C. for 45-70 minutes and each plate was read at 450 nm on a microplate reader. The data was edited using SoftMax Pro and a 4-P fitting curve was plotted."}, "[7]": {"molecular_target": "FOLH1 (Homo sapiens, UniProt Q04609)", "sequence (Q04609 44-750 limits assumed)": "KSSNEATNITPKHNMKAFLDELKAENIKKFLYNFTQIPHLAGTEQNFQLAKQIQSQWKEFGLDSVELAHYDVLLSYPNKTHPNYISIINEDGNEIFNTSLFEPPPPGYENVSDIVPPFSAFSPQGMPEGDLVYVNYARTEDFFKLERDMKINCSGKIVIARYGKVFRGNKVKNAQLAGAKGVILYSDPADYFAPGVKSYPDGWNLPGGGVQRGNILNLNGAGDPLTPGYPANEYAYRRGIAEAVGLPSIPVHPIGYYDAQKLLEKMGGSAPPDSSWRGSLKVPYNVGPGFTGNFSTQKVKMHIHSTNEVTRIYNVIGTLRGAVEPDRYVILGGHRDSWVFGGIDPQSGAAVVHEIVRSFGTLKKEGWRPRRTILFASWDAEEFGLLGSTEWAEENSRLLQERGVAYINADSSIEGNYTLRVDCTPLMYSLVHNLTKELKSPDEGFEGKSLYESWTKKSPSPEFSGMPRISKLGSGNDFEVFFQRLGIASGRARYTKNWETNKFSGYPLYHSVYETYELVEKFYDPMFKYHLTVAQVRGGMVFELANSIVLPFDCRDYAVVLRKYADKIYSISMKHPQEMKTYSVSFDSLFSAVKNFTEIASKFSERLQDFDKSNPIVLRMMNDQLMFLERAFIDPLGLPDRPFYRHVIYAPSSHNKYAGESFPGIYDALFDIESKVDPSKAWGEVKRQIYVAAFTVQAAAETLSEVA", "sequence (P15328 25-233 partner limits assumed)": "as the sequence (P15328 25-233 limits assumed) above", "assay": "BIAcore T200: binding of FOLH1 to compound-FOLR1 complex", "set-up": "purchased Sino Biologicals (FOLH1); R&D System (FOLR1) 15877-H07H (FOLH1); 5646-FR (FOLR1)", "source_text": "CM5 chip was conjugated with a ligand: FOLR1 (R&D System, Cat #: 5646-FR)\nAnalyte: CB-20BK, FA-MMAE and FOLH1 (Sino Biologicals, Cat #: 15877-H07H)\nAccording to BIAcore T200 (GE) operating manual, FOLR1 was conjugated to the CM5 chip; CB-20BK or FA-MMAE was loaded first, and then FOLH1 was loaded; and the binding of FOLH1 to the CB-20BK-FOLR1 complex was detected."}}, "note": "Numbered stars: 1 amine (or outer) side, 2 acyl side, 3 side chain; on linkers, the order of the positions; unused ones are H or OH. Square brackets hold non-standard residues; d marks the D form. Peptide text beside a SMILES is read from it. * marks the point of attachment. ξ: configuration not given here. X6 = CCc1c2c(nc3ccc(O)cc13)-c1cc3c(c(=O)n1C2)COC(=O)[C@@]3(CC)OC(=O)OCc1ccc(NC(=O)COCC(=O)NCCOCCOCCOCCOCCOCCn2nncc2CNC(=O)CCCCCN2C(=O)CC(*)C2=O)cc1; Pteroyl = Nc1nc2ncc(CNc3ccc(C(=O)*)cc3)nc2c(=O)[nH]1; γGlu = O=C(O)[C@H](CCC(=O)[*:2])N[*:1]; ξV = CC(C)C(N)C(=O)O", "data": [{"smiles": "CCc1c2c(nc3ccc(O)cc13)-c1cc3c(c(=O)n1C2)COC(=O)[C@@]3(CC)OC(=O)OCc1ccc(NC(=O)COCC(=O)NCCOCCOCCOCCOCCOCCn2nncc2CNC(=O)CCCCCN2C(=O)CC(SC[C@H](NC(=O)CC[C@H](NC(=O)c3ccc(NCc4cnc5[nH]c(N)nc(=O)c5n4)cc3)C(=O)O)C(=O)N[C@@H](CCCCN)C(=O)N[C@@H](CCC(=O)O)C(=O)N[C@@H](Cc3ccccc3)C(=O)N[C@@H](CC(C)C)C(=O)N[C@@H](Cc3cnc[nH]3)C(=O)N3CCC[C@H]3C(=O)N[C@@H](CO)C(=O)N[C@@H](CCCCN)C(=O)NC(C(=O)N[C@@H](CC(=O)O)C(=O)N[C@@H](CC(C)C)C(=O)N3CCC[C@H]3C(=O)N[C@@H](CCCNC(=N)N)C(=O)O)C(C)C)C2=O)cc1", "note": "(stereo partly drawn) [CB-10S] ({Pteroyl-γGlu}-C(X6)KEFLHPSK[ξV]DLPR-OH)", "values": [{"measurement": "inhibitory effect on growth and expansion of tumor cell lines", "setting": "[1]; 72 hours, CCK-8", "value": "has an inhibitory effect"}, {"measurement": "IC50 compared between cell lines", "setting": "[1]; KB, LNcap, T-47D and RT4 versus NCI-H460", "value": "significantly lower"}]}, {"smiles": "CCc1c2c(nc3ccc(O)cc13)-c1cc3c(c(=O)n1C2)COC(=O)[C@@]3(CC)OC(=O)OCc1ccc(NC(=O)[C@H](CCCNC(N)=O)NC(=O)COCC(=O)NCCOCCOCCOCCOCCOCCn2cc(C[C@H](NC(=O)[C@H](CCCCN)NC(=O)[C@H](CC(=O)O)NC(=O)[C@H](CC(=O)O)NC(=O)Cc3ccc(CNC(=O)NCCCC[C@H](NC(=O)N[C@@H](CCC(=O)O)C(=O)O)C(=O)O)cc3)C(=O)N[C@@H](CCCCNC(=O)CC[C@H](NC(=O)c3ccc(NCc4cnc5[nH]c(N)nc(=O)c5n4)cc3)C(=O)O)C(N)=O)nn2)cc1", "note": "[CB-60SK]", "values": [{"measurement": "inhibitory effect on growth and expansion of tumor cell lines", "setting": "[2]; 72 hours, CCK-8", "value": "has an inhibitory effect"}, {"measurement": "IC50 compared between cell lines", "setting": "[2]; LNCaP and HuH-7 versus T-47D, NCI-H460, CALU-3 and KB", "value": "significantly lower"}]}, {"smiles": "CCc1c2c(nc3ccc(O)cc13)-c1cc3c(c(=O)n1C2)COC(=O)[C@@]3(CC)OC(=O)OCc1ccc(NC(=O)[C@H](CCCNC(N)=O)NC(=O)COCC(=O)NCCOCCOCCOCCOCCOCCn2cc(C[C@H](NC(=O)[C@H](CC(=O)O)NC(=O)[C@H](CC(=O)O)NC(=O)Cc3ccc(CNC(=O)NCCCC[C@H](NC(=O)N[C@@H](CCC(=O)O)C(=O)O)C(=O)O)cc3)C(=O)N[C@@H](CCCCNC(=O)CC[C@H](NC(=O)c3ccc(NCc4cnc5[nH]c(N)nc(=O)c5n4)cc3)C(=O)O)C(N)=O)nn2)cc1", "note": "[CB-60S]", "values": [{"measurement": "inhibitory effect on growth and expansion of tumor cell lines", "setting": "[3]; 72 hours, CCK-8", "value": "has an inhibitory effect"}, {"measurement": "IC50 compared between cell lines", "setting": "[3]; LNCaP and HuH-7 versus NCI-H460, KB, T-47D and CALU-3", "value": "significantly lower"}]}, {"smiles": "CC[C@@]1(O)C(=O)OCc2c1cc1n(c2=O)Cc2c-1nc1cc(F)c(C)c3c1c2[C@@H](NC(=O)COCNC(=O)CNC(=O)[C@H](Cc1ccccc1)NC(=O)CNC(=O)CNC(=O)CCCCCN1C(=O)CC(SC[C@H](NC(=O)CC[C@H](NC(=O)c2ccc(NCc4cnc5[nH]c(N)nc(=O)c5n4)cc2)C(=O)O)C(=O)N[C@@H](CCCCN)C(N)=O)C1=O)CC3", "note": "(stereo partly drawn) [FA-MMAE, reference compound]", "values": [{"measurement": "kd", "setting": "[4]; FOLR1 on CM5 chip, N/D = no specific binding was detected", "value": 0.000115, "unit": "s⁻¹"}, {"measurement": "kon", "setting": "[4]; read-out: ka", "value": "1.79e+06", "unit": "M⁻¹ s⁻¹"}, {"measurement": "IC50 ratio (MMAE/conjugate)", "setting": "[5]; LNCaP", "value": 0.010}, {"measurement": "IC50 ratio in LNCaP relative to IC50 ratio in 22RV1 (times higher / factor)", "setting": "[5]; LNCaP versus 22RV1", "value": 1.5}, {"measurement": "IC50", "setting": "[5]; LNCaP, 68-72 hours, CCK8", "value": 0.264, "unit": "µM"}, {"measurement": "IC50 ratio (MMAE/conjugate)", "setting": "[6]; 22RV1", "value": 0.006}, {"measurement": "IC50", "setting": "[6]; 22RV1, 68-72 hours, CCK8", "value": 1.01, "unit": "µM"}, {"measurement": "Binding of compound-FOLR1 complex to FOLH1 solution", "setting": "[7]; FOLH1 concentration 0.0625 μM", "value": "−1", "unit": "RU"}, {"measurement": "Binding of compound-FOLR1 complex to FOLH1 solution", "setting": "[7]; FOLH1 concentration 0.125 μM", "value": 4.2, "unit": "RU"}, {"measurement": "Binding of compound-FOLR1 complex to FOLH1 solution", "setting": "[7]; FOLH1 concentration 0.25 μM", "value": 8.4, "unit": "RU"}, {"measurement": "Binding of compound-FOLR1 complex to FOLH1 solution", "setting": "[7]; FOLH1 concentration 0.5 μM", "value": 9.8, "unit": "RU"}, {"measurement": "amount of FOLH1 bound to compound-FOLR1 complex (in words)", "setting": "[7]; FOLH1 solution at a high concentration", "value": "tends to saturate at a high concentration"}]}]}
